In ChEMBL document CHEMBL1201862, “PubChem BioAssay data set” (2004):
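1) Cells in 96-well plates. 2) Compound, 48 h, 5 concentrations. 3) Linear interpolation between surrounding doses. 4) Unreached endpoint = highest concentration. Abbreviation: GI50, concentration required for 50% inhibition of growth.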 The source made the active and inactive calls. Cut-off read from the data, not from the text of the source: active = GI50 up to about 1.1 µM and inactive = higher.

Key:
Experiment in all cases: DTP human tumour cell line panel, 48 h
[1] = system: DMS-114
[2] = system: DMS-273
[3] = system: DLD-1
[4] = system: KM-20L2
[5] = system: M19-MEL
[6] = system: RXF 631
[7] = system: SNB-78
[8] = system: XF498
[9] = system: HOP-18

Measured: GI50

COc1ccc(-c2[nH]c3ccccc3c2CCNS(=O)(=O)c2ccc(C)cc2)cc1
inactive: [1] > 9.55 µM | [2] 7.48 µM | [3] 8.09 µM | [4] > 8.47 µM | [5] > 8.39 µM | [6] > 8.49 µM | [7] > 10 µM | [8] > 8.83 µM | [9] > 7.4 µM

Nc1nc2c(ncn2C2OC(CO)C(O)C2O)c(=O)o1 (stereo unspecified)
inactive: [1] 67.3 µM | [2] 22.5 µM | [3] > 89.1 µM | [4] > 55 µM | [5] > 100 µM | [6] > 100 µM | [7] > 100 µM | [8] > 100 µM | [9] > 100 µM

O=P(O)(OCC(O)O)OCC(O)O
inactive: [1] > 100 µM | [2] > 100 µM | [3] > 100 µM | [4] > 100 µM | [5] > 100 µM | [6] > 100 µM | [7] > 100 µM | [8] > 100 µM | [9] 41.4 µM

CCCCCCCCCCCCCC(=O)OCC1OC(n2cc(F)c(=O)[nH]c2=O)C(NC(=O)OCc2ccccc2)C(OC(=O)CCCCCCCCCCCCC)C1O (stereo unspecified)
inactive: [1] > 100 µM | [2] > 100 µM | [3] > 100 µM | [4] > 100 µM | [5] > 100 µM | [6] > 100 µM | [7] > 100 µM | [8] > 100 µM | [9] > 100 µM
